This note sets out measurements from the supplement of paper PMC10307832.

Holding throughout (experiment): relative viability (nuclei count vs DMSO), 5 days (fraction); higher = more cells survive
The subject of assay [1] is NCI-H1623. In outline: (§1)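 Relative viability divides the nuclei count in treated wells by that in vehicle wells. Lung cancer cell lines were seeded in 1536-well plates, dosed by pin tool the next day, and fixed and stained after 5 days in one step with final 0.05% Triton X-100, 1% formaldehyde and 1 ug/ml Hoechst. Dosing was a single drug or a fixed anchor-drug dose plus five library-drug doses (not always all listed) in √10 steps, and values are medians of duplicate plates imaged at 4×.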

The test system of assay [2] is NCI-H1563. In a few lines:
as §1

For assay [3], the system named is A549. In a few lines: as §1
Assay [4] deals with IA-LM. In a few lines: as §1
Assay [5] concerns NCI-H1299. In outline: as §1
In assay [6] the test system is NCI-H1703. In outline: as §1

On to `Nc1cccc2c1CN(C1CCC(=O)NC1=O)C2=O` (stereo not given) [Lenalidomide] + N=C(N)NC(=N)NCCc1ccccc1 [Phenformin] (partner 250 µM), for which the relative viability in assay [1] (first compound 0.253 µM) turned out to be 0.572; in assay [1] (first compound 0.8 µM) it was 0.576; in assay [1] (first compound 2.53 µM), 0.601; in assay [1] (first compound 8 µM) it was 0.544; in assay [2] (first compound 0.253 µM), 0.667; in assay [2] (first compound 0.8 µM), 0.774. The relative viability worked out at 0.697 in assay [2] (first compound 2.53 µM); 0.613 in assay [2] (first compound 8 µM); 0.104 in assay [3] (first compound 0.253 µM); 0.158 in assay [3] (first compound 0.8 µM); 0.168 in assay [3] (first compound 2.53 µM); 0.208 in assay [3] (first compound 8 µM).
For `Cc1cn(-c2cc(NC(=O)c3ccc(C)c(Nc4nccc(-c5cccnc5)n4)c3)cc(C(F)(F)F)c2)cn1` [Nilotinib] + Nc1nc2[nH]cc(CCc3ccc(C(=O)N[C@@H](CCC(=O)O)C(=O)O)cc3)c2c(=O)[nH]1 [Pemetrexed] (partner 0.2 µM), the relative viability was 0.746 in assay [2] (first compound 0.001 µM); 0.712 in assay [2] (first compound 0.003162 µM); 0.796 in assay [2] (first compound 0.01 µM); 0.667 in assay [2] (first compound 0.03162 µM); 0.552 in assay [2] (first compound 0.1 µM).
Consider `Nc1cccc2c1CN(C1CCC(=O)NC1=O)C2=O` (stereo not given) [Lenalidomide] + Cc1cc(Nc2cc(N3CCN(C)CC3)nc(Sc3ccc(NC(=O)C4CC4)cc3)n2)n[nH]1 [Tozasertib] (partner 0.1 µM), for which the relative viability worked out at 0.427 in assay [1] (first compound 0.253 µM), 0.36 in assay [1] (first compound 0.8 µM), 0.43 in assay [1] (first compound 2.53 µM) and 0.496 in assay [1] (first compound 8 µM).
On to `Nc1cccc2c1CN(C1CCC(=O)NC1=O)C2=O` (stereo not given) [Lenalidomide] + COc1cc2c(Oc3ccc(NC(=O)C4(C(=O)Nc5ccc(F)cc5)CC4)cc3F)ccnc2cc1OCCCN1CCOCC1 [Foretinib] (partner 0.25 µM), for which the relative viability in assay [1] (first compound 0.253 µM) amounted to 0.858; in assay [1] (first compound 0.8 µM), 0.784; in assay [1] (first compound 2.53 µM) it was 0.862; in assay [1] (first compound 8 µM), 0.71; in assay [4] (first compound 0.253 µM) it was 0.952; in assay [4] (first compound 0.8 µM) it was 1.15. Further, the relative viability in assay [4] (first compound 2.53 µM) was determined as 1.28; in assay [4] (first compound 8 µM) it was 1.07; in assay [2] (first compound 0.253 µM), 0.894; in assay [2] (first compound 0.8 µM), 0.933; in assay [2] (first compound 2.53 µM), 0.902; in assay [2] (first compound 8 µM), 0.77. The relative viability was 0.925 in assay [3] (first compound 0.253 µM); 0.954 in assay [3] (first compound 0.8 µM); 1.04 in assay [3] (first compound 2.53 µM); 0.897 in assay [3] (first compound 8 µM); 1.1 in assay [5] (first compound 0.253 µM); 1.08 in assay [5] (first compound 0.8 µM). In addition, the relative viability in assay [5] (first compound 2.53 µM) stood at 1.09; in assay [5] (first compound 8 µM) it was 1.13; in assay [6] (first compound 0.253 µM), 0.328; in assay [6] (first compound 0.8 µM) it was 0.348; in assay [6] (first compound 2.53 µM) it was 0.403; in assay [6] (first compound 8 µM), 0.426.
As for `Nc1cccc2c1CN(C1CCC(=O)NC1=O)C2=O` (stereo not given) [Lenalidomide] + O=C(CCCCCCC(=O)Nc1ccccc1)NO [Vorinostat] (partner 1 µM), the relative viability was found to be 0.852 in assay [4] (first compound 0.253 µM), 0.969 in assay [4] (first compound 0.8 µM), 1.22 in assay [4] (first compound 2.53 µM) and 0.814 in assay [4] (first compound 8 µM).
On to `Nc1cccc2c1CN(C1CCC(=O)NC1=O)C2=O` (stereo not given) [Lenalidomide] + O=C(c1cc(Cc2n[nH]c(=O)c3ccccc23)ccc1F)N1CCN(C(=O)C2CC2)CC1 [Olaparib] (partner 8 µM), for which the relative viability in assay [4] (first compound 0.253 µM) came to 0.874; in assay [4] (first compound 0.8 µM), 0.799; in assay [4] (first compound 2.53 µM), 0.777; in assay [4] (first compound 8 µM), 0.728; in assay [3] (first compound 0.253 µM), 0.401; in assay [3] (first compound 0.8 µM), 0.101. The relative viability is 0.22 in assay [3] (first compound 2.53 µM); 0.228 in assay [3] (first compound 8 µM); 0.938 in assay [5] (first compound 0.253 µM); 1.03 in assay [5] (first compound 0.8 µM); 1 in assay [5] (first compound 2.53 µM); 1.07 in assay [5] (first compound 8 µM). The relative viability came out at 0.398 in assay [6] (first compound 0.253 µM), 0.521 in assay [6] (first compound 0.8 µM), 0.478 in assay [6] (first compound 2.53 µM) and 0.433 in assay [6] (first compound 8 µM).
On to `Nc1cccc2c1CN(C1CCC(=O)NC1=O)C2=O` (stereo not given) [Lenalidomide] + CCNC(=O)c1noc(-c2cc(C(C)C)c(O)cc2O)c1-c1ccc(CN2CCOCC2)cc1 [Luminespib] (partner 0.01 µM), for which the relative viability in assay [1] (first compound 0.253 µM) was 0.413; in assay [1] (first compound 0.8 µM), 0.474; in assay [1] (first compound 2.53 µM), 0.557; in assay [1] (first compound 8 µM) it was 0.399; in assay [2] (first compound 0.253 µM), 0.535; in assay [2] (first compound 0.8 µM), 0.526. Moreover, the relative viability was determined as 0.468 in assay [2] (first compound 2.53 µM) and 0.581 in assay [2] (first compound 8 µM).
Consider `Cc1cn(-c2cc(NC(=O)c3ccc(C)c(Nc4nccc(-c5cccnc5)n4)c3)cc(C(F)(F)F)c2)cn1` [Nilotinib] + CS(=O)(=O)CCNCc1ccc(-c2ccc3ncnc(Nc4ccc(OCc5cccc(F)c5)c(Cl)c4)c3c2)o1 [Lapatinib] (partner 2 µM), for which the relative viability was 0.936 in assay [4] (first compound 0.003162 µM); 0.755 in assay [4] (first compound 0.01 µM); 0.459 in assay [4] (first compound 0.03162 µM); 0.794 in assay [4] (first compound 0.1 µM); 0.961 in assay [2] (first compound 0.001 µM); 0.916 in assay [2] (first compound 0.003162 µM). Besides, the relative viability in assay [2] (first compound 0.01 µM) turned out to be 0.874; in assay [2] (first compound 0.03162 µM), 0.873; in assay [2] (first compound 0.1 µM) it was 0.596; in assay [3] (first compound 0.001 µM), 1.01; in assay [3] (first compound 0.003162 µM), 1.07; in assay [3] (first compound 0.01 µM), 1.09. The relative viability in assay [3] (first compound 0.03162 µM) was 0.881; in assay [3] (first compound 0.1 µM), 0.672; in assay [5] (first compound 0.001 µM), 0.967; in assay [5] (first compound 0.003162 µM) it was 0.974; in assay [5] (first compound 0.01 µM) it was 0.992; in assay [5] (first compound 0.03162 µM) it was 1.05. Moreover, the relative viability in assay [5] (first compound 0.1 µM) stood at 0.98; in assay [6] (first compound 0.003162 µM) it was 0.738; in assay [6] (first compound 0.01 µM), 0.567; in assay [6] (first compound 0.03162 µM) it was 0.208; in assay [6] (first compound 0.1 µM), 0.227.
Turning to `Nc1cccc2c1CN(C1CCC(=O)NC1=O)C2=O` (stereo not given) [Lenalidomide] + NC(=O)Nc1cc(-c2cccc(F)c2)sc1C(=O)N[C@H]1CCCNC1 [AZD7762] (partner 0.2 µM), the relative viability in assay [6] (first compound 0.253 µM) was found to be 0.123; in assay [6] (first compound 0.8 µM), 0.117; in assay [6] (first compound 2.53 µM) it was 0.131; in assay [6] (first compound 8 µM), 0.135.
